# Experimental data from patent US20220177466A1, “DEGRADERS OF KELCH-LIKE ECH-ASSOCIATED PROTEIN 1 (KEAP1)” (DANA-FARBER CANCER INSTITUTE, INC., priority 2019, published 2022).
# Tests used:
# Type in all cases: cell-based
# [1] = target: T1, KEAP1 (Homo sapiens, UniProt Q14145); test: Rescue of degrader-induced KEAP1 degradation by pretreatment in MM.1S cells, immunoblot; details: pretreatment 2 h (10 μM DGY-03-118, 10 μM Lenalidomide, 0.5 μM Bortezomib, 1 μM MLN4924); for rescue of the KEAP1 degradation induced by compound 1: then 5 μM compound 1 for 2 h, FIG. 4A; for rescue of the KEAP1 degradation induced by compound 4: then 5 μM compound 4 for 2 h, FIG. 4B
# T1 construct: endogenous in cells; host or cells: MM.1S cells
# Method: (§1) MM.1S cells were treated with 0, 0.1 μM, 1 μM, or 10 μM of compound 1 or compound 4 or 0.25 μM THAL-SNS-032 (a known CDK9 degrader, as a positive control for CDK9 degradation) for 16 hours. Cells were then lysed in RIPA buffer (Sigma) containing protease/phosphatase inhibitor cocktail (Roche). The protein concentrations were measured by bicinchoninic acid assay (BCA) analysis (Pierce™). Equal amounts of protein were resolved by 4-12% Tris-Base gels (Invitrogen), and then transferred to the Immuno-Blot polyvinylidene difluoride (PVDF) membrane (BioRad), and immunoblotted with primary antibodies against KEAP1 (cell signaling), CRBN (cell signaling), CDK9 (cell signaling) and R-Actin (cell signaling), and then immunoblotted with IRDye® 800-labeled goat anti-rabbit IgG and IRDye®800-labeled goat anti-mouse IgG (LI-COR) secondary antibodies. The membranes were detected on Odyssey CLx system.
# (§2) MM.1S cells were pretreated with 10 μM DGY-03-118 (the parental compound and known KEAP1 inhibitor), 10 μM Lenalidomide (CRBN ligand), 0.5 μM Bortezomib (a proteasome inhibitor) and 1 μM MLN4924 (a neddylation inhibitor) for 2 h, and then treated with 5 μM compound 1 for 2 h. Cells were lysed and immunoblotted as described above with antibodies to KEAP1 and β-Actin.
# as §2, with “compound 4” for “compound 1”
# [2] = target: T2, CDK9 (Homo sapiens, UniProt P50750+Q96SW2); test: CDK9 degradation in MM.1S cells, immunoblot (positive control); details: 0.25 μM, 16 hours, FIG. 1
# T2 construct: endogenous in cells; host or cells: MM.1S cells
# Method: as §1
# [3] = target: T3, GSPT1 (Homo sapiens, UniProt P15170); test: Off-target degradation in MM.1S cells, immunoblot: GSPT1; details: 5 μM, up to 6 h, FIG. 2
# T3 construct: endogenous in cells; host or cells: MM.1S cells
# Method: as §1
# (§3) MM.1S cells were treated with 0 or 5 μM compound 1 or compound 4 for 0, 2, 4, or 6 h. Cells were lysed and immunoblotted as described above with antibodies to KEAP1 (cell signaling), CRBN (cell signaling), IKZF1 (cell signaling), IKZF3 (cell signaling), GSPT1 (abcam) and R-Actin (cell signaling).
# [4] = target: T4, IKZF1 (Homo sapiens, UniProt Q13422); test: Off-target degradation in MM.1S cells, immunoblot: IKZF1; details: 5 μM, up to 6 h, FIG. 2
# T4 construct: endogenous in cells; host or cells: MM.1S cells
# Method: as §1, §3
# [5] = target: T5, IKZF3 (Homo sapiens, UniProt Q9UKT9); test: Off-target degradation in MM.1S cells, immunoblot: IKZF3; details: 5 μM, up to 6 h, FIG. 2
# T5 construct: endogenous in cells; host or cells: MM.1S cells
# Method: as §1, §3
# [6] = target: T1, KEAP1; test: Knockdown of KEAP1 in MM.1S cells, immunoblot, concentration series, 16 h; details: 0.1 μM, 1 μM or 10 μM, FIG. 1
# Method: as §1
# [7] = target: T1, KEAP1; test: KEAP1 degradation in wild-type (WT) MM.1S cells, immunoblot; details: 5 μM, 0, 2, 4 or 6 h, FIG. 3
# Method: as §1
# (§4) Wild-type (WT) (left panel) or CRBN−/− (right panel) MM.1 S cells were treated with 0 or 5 μM compound 1 or compound 4 for 0, 2, 4, or 6 h. Cells were lysed and immunoblotted as described above with antibodies to KEAP1 (cell signaling) and R-Actin (cell signaling).
# [8] = target: T1, KEAP1; test: KEAP1 degradation in CRBN−/− MM.1S cells, immunoblot; details: 5 μM, 0, 2, 4 or 6 h, FIG. 3
# Method: as §1, §4
# [9] = target: T1, KEAP1; test: KEAP1 levels after washout in MM.1S cells, immunoblot; details: 5 μM for 2 h, washout at 2, 4, 7 and 24 hours, FIG. 5A/5B
# Method: as §1
# MM.1S cells were treated with 0 or 5 μM compound 1 for 2 h, followed by washout at 2, 4, 7, and 24 hours. Cells were lysed and immunoblotted as described above with antibodies to KEAP1 and β-Actin.
# MM.1S cells were treated with 0 or 5 μM compound 4 for 2 h, followed by washout at 2, 4, 7, and 24 hours. Cells were lysed and immunoblotted as described above with antibodies to KEAP1 and β-Actin.
# T1 sequence (Q14145 whole entry): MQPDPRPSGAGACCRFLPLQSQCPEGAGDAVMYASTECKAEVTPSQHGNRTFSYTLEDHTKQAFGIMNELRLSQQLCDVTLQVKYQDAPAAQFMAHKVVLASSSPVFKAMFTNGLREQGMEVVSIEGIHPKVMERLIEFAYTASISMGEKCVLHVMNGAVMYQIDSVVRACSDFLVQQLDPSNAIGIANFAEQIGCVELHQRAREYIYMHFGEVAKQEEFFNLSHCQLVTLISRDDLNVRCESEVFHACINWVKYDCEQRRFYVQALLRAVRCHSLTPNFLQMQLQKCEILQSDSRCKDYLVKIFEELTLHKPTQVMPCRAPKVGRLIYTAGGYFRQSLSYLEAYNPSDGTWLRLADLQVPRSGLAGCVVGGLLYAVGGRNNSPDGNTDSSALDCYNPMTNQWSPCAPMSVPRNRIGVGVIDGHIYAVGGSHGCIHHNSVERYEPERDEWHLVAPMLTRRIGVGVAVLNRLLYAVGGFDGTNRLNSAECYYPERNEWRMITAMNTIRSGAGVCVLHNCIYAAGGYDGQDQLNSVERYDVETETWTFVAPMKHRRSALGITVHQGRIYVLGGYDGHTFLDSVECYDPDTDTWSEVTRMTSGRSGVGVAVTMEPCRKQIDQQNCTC
# T5 sequence (Q96SW2 whole entry partner): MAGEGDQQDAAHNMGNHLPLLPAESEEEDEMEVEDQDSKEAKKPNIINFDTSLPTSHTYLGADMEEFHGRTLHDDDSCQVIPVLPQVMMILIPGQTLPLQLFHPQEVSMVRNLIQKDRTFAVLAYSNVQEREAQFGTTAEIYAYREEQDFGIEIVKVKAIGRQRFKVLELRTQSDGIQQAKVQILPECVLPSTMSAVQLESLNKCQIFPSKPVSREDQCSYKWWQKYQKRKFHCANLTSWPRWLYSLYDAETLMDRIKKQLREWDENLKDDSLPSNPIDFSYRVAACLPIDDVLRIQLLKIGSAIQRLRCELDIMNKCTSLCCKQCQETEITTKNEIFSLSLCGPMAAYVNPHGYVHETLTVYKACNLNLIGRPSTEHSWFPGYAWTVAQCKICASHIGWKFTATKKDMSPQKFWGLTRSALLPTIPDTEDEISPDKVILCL
# T5 sequence (Q16531 whole entry partner): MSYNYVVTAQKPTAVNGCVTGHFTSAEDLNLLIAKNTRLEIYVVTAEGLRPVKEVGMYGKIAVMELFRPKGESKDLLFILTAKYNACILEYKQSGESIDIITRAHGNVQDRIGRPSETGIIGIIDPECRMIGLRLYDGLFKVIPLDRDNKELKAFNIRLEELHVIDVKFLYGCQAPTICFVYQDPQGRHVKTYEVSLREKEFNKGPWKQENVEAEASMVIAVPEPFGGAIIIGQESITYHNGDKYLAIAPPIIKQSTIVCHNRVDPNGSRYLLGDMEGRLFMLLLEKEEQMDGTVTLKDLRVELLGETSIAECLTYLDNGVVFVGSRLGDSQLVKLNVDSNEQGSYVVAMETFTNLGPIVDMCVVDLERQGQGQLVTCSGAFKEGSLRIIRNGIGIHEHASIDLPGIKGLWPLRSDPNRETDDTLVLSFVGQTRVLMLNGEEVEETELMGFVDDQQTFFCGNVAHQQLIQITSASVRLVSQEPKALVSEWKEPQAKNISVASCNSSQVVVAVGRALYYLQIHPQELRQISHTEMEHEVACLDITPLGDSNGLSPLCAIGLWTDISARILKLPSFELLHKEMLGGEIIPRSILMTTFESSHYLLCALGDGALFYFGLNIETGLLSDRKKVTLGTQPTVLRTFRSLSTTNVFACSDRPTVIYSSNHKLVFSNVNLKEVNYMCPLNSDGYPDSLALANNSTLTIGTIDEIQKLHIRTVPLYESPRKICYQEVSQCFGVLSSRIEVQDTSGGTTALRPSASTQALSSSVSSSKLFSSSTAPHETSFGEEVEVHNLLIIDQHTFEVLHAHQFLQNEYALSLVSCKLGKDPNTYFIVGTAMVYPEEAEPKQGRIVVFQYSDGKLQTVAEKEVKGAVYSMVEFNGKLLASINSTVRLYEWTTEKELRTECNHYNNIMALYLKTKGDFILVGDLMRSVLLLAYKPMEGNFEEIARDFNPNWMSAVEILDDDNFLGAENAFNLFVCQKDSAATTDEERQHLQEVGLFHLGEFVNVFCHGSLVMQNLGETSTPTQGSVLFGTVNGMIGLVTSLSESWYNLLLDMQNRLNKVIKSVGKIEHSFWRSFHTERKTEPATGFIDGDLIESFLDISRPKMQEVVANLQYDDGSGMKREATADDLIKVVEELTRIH
# T5 sequence (Q9UKT9 whole entry): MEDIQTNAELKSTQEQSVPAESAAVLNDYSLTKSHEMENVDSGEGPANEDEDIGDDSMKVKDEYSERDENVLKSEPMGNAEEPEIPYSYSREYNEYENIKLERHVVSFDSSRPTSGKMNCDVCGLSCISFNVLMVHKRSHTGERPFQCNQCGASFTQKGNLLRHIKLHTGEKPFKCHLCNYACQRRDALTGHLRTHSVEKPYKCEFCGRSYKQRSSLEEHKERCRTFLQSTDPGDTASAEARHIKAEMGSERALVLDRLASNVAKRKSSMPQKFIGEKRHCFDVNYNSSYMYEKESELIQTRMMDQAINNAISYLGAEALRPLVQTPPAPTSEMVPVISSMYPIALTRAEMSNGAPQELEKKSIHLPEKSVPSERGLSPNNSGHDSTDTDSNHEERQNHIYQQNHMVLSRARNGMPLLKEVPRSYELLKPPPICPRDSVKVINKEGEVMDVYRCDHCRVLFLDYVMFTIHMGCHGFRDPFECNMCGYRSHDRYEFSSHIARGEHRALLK
# T3 sequence (Q96SW2 whole entry partner): as the sequence (Q96SW2 whole entry partner) above
# T3 sequence (Q16531 whole entry partner): as the sequence (Q16531 whole entry partner) above
# T3 sequence (P15170 whole entry): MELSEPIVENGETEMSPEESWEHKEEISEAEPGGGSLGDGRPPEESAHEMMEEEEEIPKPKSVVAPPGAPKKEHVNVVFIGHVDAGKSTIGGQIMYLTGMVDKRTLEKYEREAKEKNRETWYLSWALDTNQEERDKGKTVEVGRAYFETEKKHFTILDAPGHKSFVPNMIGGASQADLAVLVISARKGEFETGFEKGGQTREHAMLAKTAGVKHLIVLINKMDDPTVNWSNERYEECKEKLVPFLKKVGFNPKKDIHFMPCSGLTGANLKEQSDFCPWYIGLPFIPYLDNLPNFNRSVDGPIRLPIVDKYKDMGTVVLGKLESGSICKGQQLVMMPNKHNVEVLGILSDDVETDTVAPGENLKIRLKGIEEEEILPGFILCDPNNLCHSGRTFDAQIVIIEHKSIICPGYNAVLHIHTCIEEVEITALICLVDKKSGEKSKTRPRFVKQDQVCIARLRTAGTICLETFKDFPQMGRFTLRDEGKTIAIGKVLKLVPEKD
# T4 sequence (Q96SW2 whole entry partner): as the sequence (Q96SW2 whole entry partner) above
# T4 sequence (Q16531 whole entry partner): as the sequence (Q16531 whole entry partner) above
# T4 sequence (Q13422 whole entry): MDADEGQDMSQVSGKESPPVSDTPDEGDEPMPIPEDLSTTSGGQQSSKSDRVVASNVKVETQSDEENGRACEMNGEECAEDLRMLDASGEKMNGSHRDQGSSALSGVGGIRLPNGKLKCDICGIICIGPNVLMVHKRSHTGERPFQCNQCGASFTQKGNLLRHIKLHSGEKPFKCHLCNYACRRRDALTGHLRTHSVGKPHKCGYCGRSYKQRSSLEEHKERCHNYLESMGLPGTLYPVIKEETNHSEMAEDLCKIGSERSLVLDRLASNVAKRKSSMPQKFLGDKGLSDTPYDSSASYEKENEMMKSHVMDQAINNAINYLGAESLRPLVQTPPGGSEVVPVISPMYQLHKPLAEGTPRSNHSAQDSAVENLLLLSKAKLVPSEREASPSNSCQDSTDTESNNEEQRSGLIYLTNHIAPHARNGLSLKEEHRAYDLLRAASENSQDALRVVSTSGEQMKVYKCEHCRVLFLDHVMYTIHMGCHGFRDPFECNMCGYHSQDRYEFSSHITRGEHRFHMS
SMILES,rescue of the KEAP1 degradation induced by compound 1 [1],rescue of the KEAP1 degradation induced by compound 4 [1],CDK9 degradation [2],degradation of potential off target GSPT1 [3],degradation of potential off target IKZF1 [4],degradation of potential off target IKZF3 [5],degradation of KEAP1 [6],KEAP1 degradation in WT MM.1S cells [7],KEAP1 degradation in CRBN−/− MM.1S cells [8],KEAP1 levels after washout relative to vehicle-treated cells [9]
CC(C)(C)c1cnc(CSc2cnc(NC(=O)C3CCN(CC(=O)NCCOCCOCCOCCNc4cccc5c4C(=O)N(C4CCC(=O)NC4=O)C5=O)CC3)s2)o1 (stereo not drawn) [THAL-SNS-032],,,induced CDK9 degradation,,,,,,,
Nc1cccc2c1CN(C1CCC(=O)NC1=O)C2=O (stereo not drawn) [Lenalidomide],rescued the KEAP1 degradation,rescued the KEAP1 degradation,,,,,,,,
"COc1cc(C(CC(=O)O)c2ccc(C)c(CN3C[C@@H](C)Oc4cc(CCCCCCNC(=O)COc5cc6c7c(cccc7c5)C(=O)N(C5CCC(=O)NC5=O)C6=O)ccc4S3(=O)=O)c2)cc2nnn(C)c12 (stereo partly drawn) [compound 4, 3-(3-(((4R)-7-(6-(2-((2-(2,6-dioxopiperidin-3-yl)-1,3-dioxo-2,3-dihydro-1H-benzo[de]isoquinolin-5-yl)oxy)acetamido)hexyl)-4-methyl-1,1-dioxido-3,4-dihydro-2H-benzo[b][1,4,5]oxathiazepin-2-yl)methyl)-4-methylphenyl)-3-(7-methoxy-1-methyl-1H-benzo[d][1,2,3]triazol-5-yl)propanoic Acid]",,,,did not induce the degradation,did not induce the degradation,did not induce the degradation,induced the degradation of KEAP1,induced KEAP1 degradation,did not induce KEAP1 degradation,remained below levels in vehicle-treated cells even 24 h after washout

# The next lines start with results.
rescue of the KEAP1 degradation induced by compound 1 [1],rescue of the KEAP1 degradation induced by compound 4 [1],CDK9 degradation [2],degradation of potential off target GSPT1 [3],degradation of potential off target IKZF1 [4],degradation of potential off target IKZF3 [5],degradation of KEAP1 [6],KEAP1 degradation in WT MM.1S cells [7],KEAP1 degradation in CRBN−/− MM.1S cells [8],SMILES,KEAP1 levels after washout relative to vehicle-treated cells [9]
rescued the KEAP1 degradation,rescued the KEAP1 degradation,,,,,,,,NS(=O)(=O)OC[C@@H]1C[C@@H](n2ccc3c(N[C@H]4CCc5ccccc54)ncnc32)C[C@@H]1O [MLN4924],
,,,did not induce the degradation,did not induce the degradation,did not induce the degradation,induced the degradation of KEAP1,induced KEAP1 degradation,did not induce KEAP1 degradation,"COc1cc(C(CC(=O)O)c2ccc(C)c(CN3C[C@@H](C)Oc4cc(CCCCCCNC(=O)COc5cccc6c5C(=O)N(C5CCC(=O)NC5=O)C6=O)ccc4S3(=O)=O)c2)cc2nnn(C)c12 (stereo partly drawn) [compound 1, 3-(3-(((4R)-7-(6-(2-((2-(2,6-dioxopiperidin-3-yl)-1,3-dioxoisoindolin-4-yl)oxy)acetamido)hexyl)-4-methyl-1,1-dioxido-3,4-dihydro-2H-benzo[b][1,4,5]oxathiazepin-2-yl)methyl)-4-methylphenyl)-3-(7-methoxy-1-methyl-1H-benzo[d][1,2,3]triazol-5-yl)propanoic Acid]",remained below levels in vehicle-treated cells 4 h after washout
rescued the KEAP1 degradation,rescued the KEAP1 degradation,,,,,,,,CC(C)C[C@H](NC(=O)[C@H](Cc1ccccc1)NC(=O)c1cnccn1)B(O)O [Bortezomib],
